# Values quoted from earlier work, collected in US7381426B2, “Targeted delivery of bioactive factors to the systemic skeleton” (Southwest Research Institute, priority 2002, dated 2008).
# System: hindlimb unloading in rats
# Conditions: infusion 2 μg/kg/day, hindlimb unloaded rats
substance,measurement,value
TGF-β,effect on unloading-induced bone changes,"corrects the decrease in bone mass, calcium content, osteoblast number and mineralization rate"
